Read-outs that look alike come from different tables or passages of the source.
Assay: GHB toxicokinetic study, i.v. bolus, plasma and urine up to 8 h, noncompartmental analysis
Type: in vivo, Sprague Dawley rats
Conditions: for clearance / CL renal: Sprague Dawley, rat, iv; for CL renal: read-out: CLR - Renal clearance
Procedure: Male and female Sprague Dawley (SD) rats, ovariectomized (OVX) females, and castrated (CST) males were obtained from Charles River (Wilmington, MA, USA) at 8 weeks of age. The animals were housed under controlled temperature and humidity with an artificial 12 h light/dark cycle, and food and water were available ad libitum. The animals were acclimatized for at least one week before experiments. Hormone treatment was conducted by implanting OVX female and CST male rats subcutaneously with 60-day release pellets containing 7.5 mg testosterone or corresponding placebo pellets (Innovative Research of America) at 10 weeks of age. After 21 days of hormone exposure, rats were utilized in toxicokinetic studies. Age-matched male and female rats were used as control groups. Female rats in the estrus stage were selected for the study. Estrus cycle stages of female rats were monitored daily by vaginal lavage smear, as described in previously published literature. The Institutional Animal Care and Use Committee (IACUC) at the University of the Pacific approved all experiments.
Jugular vein cannulas were surgically implanted under anesthesia with ketamine/xylazine. Cannulas were flushed daily with heparinized saline to maintain patency. Rats were allowed a minimum of 72 h for recovery from surgery before the experiments were conducted. GHB was administered intravenously as a 1000 mg/kg i.v. bolus or 1500 mg/kg iv bolus with or without AR-C155858 (1 mg/kg i.v. bolus) via a jugular vein cannula to the animals at 13 weeks of age (N = 5–7 per group). Rats were dosed in metabolic cages with ad libitum access to water to allow for the concurrent collection of blood and urine samples for up to 8 h. GHB was administered as a 300 mg/mL solution in sterile water, and the time of administration was considered as time 0. AR-C155858 was administered as a 1 mg/mL solution in 10% cyclodextrin in normal saline 5 min after GHB administration. Blood samples (200 μL) were taken from the jugular vein cannula at different time points: 5, 10, 20, 30, 60, 90, 120, 180, 240, 270, 300, and 330 min for 1000 mg/kg and 10, 30, 60, 90, 120, 180, 240, 270, 300, 330, 360, and 390/480 min for 1500 mg/kg bolus with or without AR-C155858. Plasma samples were separated by centrifugation and stored at −20 °C. Urine samples were collected at 120, 240, and 360 min for 1000 mg/kg and 120, 240, and 390/480 min for 1500 mg/kg bolus with or without AR-C155858 post-dose; the total urine volume was determined, and the samples were stored at −20 °C.
GHB in plasma and urine were quantified using a validated liquid chromatography/tandem mass spectrometry (LC/MS/MS) assay that was described previously. Briefly, for the preparation of plasma standards and quality controls (QCs), 5 μL of GHB-d6 and 5 μL of standard stock solution or QC stock solution were added to 45 μL of blank plasma. For each unknown plasma sample, 5 μL of GHB-d6 was added to 50 μL of plasma. Protein precipitation was then performed by the addition of 800 μL of acetonitrile with 0.1% formic acid, followed by centrifugation at 10,000 rpm for 20 min. 750 μL of the supernatant was transferred to a clean disposable glass tube and evaporated using a MultiVap Nitrogen Evaporator (Organomation, Berlin, MA, USA) under a nitrogen stream. Dried samples were reconstituted in 250 μL of 95:5 double-distilled water—acetonitrile with 0.1% acetic acid. For urine standards and QCs, 25 μL of blank urine, 5 μL of standard or QC stock solution, 5 μL of GHB-d6, and 465 μL of double-distilled water were mixed. For unknown urine samples, 25 μL of the sample was added to 5 μL of GHB-d6 and 470 μL of double-distilled water. The same LC/MS/MS method was used for GHB plasma and urine analyses. LC/MS/MS equipment consisted of an Agilent 1200 series UPLC consisting of an online degasser, binary pump, and autosampler (Agilent Technologies, Santa Clara, CA, USA) connected to a Agilent 6460 Triple Quad Mass Spectrometer. […]

[1] = 1000 mg/kg GHB iv, OVX testosterone rats
[2] = 1000 mg/kg GHB iv, intact female (estrus) rats
[3] = 1000 mg/kg GHB iv, intact male rats
[4] = 1500 mg/kg GHB + 1mg/kg AR-C 155858 iv, CST testosterone placebo rats
[5] = 1500 mg/kg GHB + 1mg/kg AR-C 155858 iv, CST testosterone rats
[6] = 1500 mg/kg GHB + 1mg/kg AR-C 155858 iv, OVX testosterone placebo rats
[7] = 1500 mg/kg GHB + 1mg/kg AR-C 155858 iv, OVX testosterone rats
[8] = 1500 mg/kg GHB + 1mg/kg AR-C 155858 iv, intact female (estrus) rats
[9] = 1500 mg/kg GHB + 1mg/kg AR-C 155858 iv, intact male rats
[10] = 1500 mg/kg GHB iv, CST testosterone placebo rats
[11] = 1500 mg/kg GHB iv, CST testosterone rats
[12] = 1500 mg/kg GHB iv, OVX testosterone placebo rats
[13] = 1500 mg/kg GHB iv, OVX testosterone rats
[14] = 1500 mg/kg GHB iv, intact female (estrus) rats
[15] = 1500 mg/kg GHB iv, intact male rats

O=C(O)CCCO [GHB, Γ-hydroxybutyric acid]
AUC - Area under the curve of plasma concentration versus time profile (1000 mg/kg GHB iv, CST testosterone placebo rats): 222 ± 40.7 mg·min/mL | AUC - Area under the curve of plasma concentration versus time profile (1000 mg/kg GHB iv, CST testosterone rats): 197 ± 35.5 mg·min/mL | AUC - Area under the curve of plasma concentration versus time profile (1000 mg/kg GHB iv, OVX testosterone placebo rats): 181 ± 10.6 mg·min/mL | AUC - Area under the curve of plasma concentration versus time profile [1]: 169 ± 25.9 mg·min/mL | CL - Total clearance [1]: 6.0 ± 0.8 mL/min/kg | AUC - Area under the curve of plasma concentration versus time profile [2]: 150 ± 16.6 mg·min/mL | fe – The fraction of drug eliminated from urine [2]: 0.39 ± 0.07 | AUC - Area under the curve of plasma concentration versus time profile [3]: 224 ± 39.8 mg·min/mL | fe – The fraction of drug eliminated from urine [3]: 0.48 ± 0.06 | AUC [4]: 195 ± 29.6 mg·min/mL | fe (fraction of drug eliminated in urine) [4]: 0.69 ± 0.13 | AUC [5]: 207 ± 40.4 mg·min/mL | fe (fraction of drug eliminated in urine) [5]: 0.74 ± 0.03 | AUC [6]: 162 ± 34.8 mg·min/mL | fe (fraction of drug eliminated in urine) [6]: 0.73 ± 0.05 | AUC [7]: 163 ± 24.9 mg·min/mL | fe (fraction of drug eliminated in urine) [7]: 0.75 ± 0.09 | AUC [8]: 184 ± 36.3 mg·min/mL | fe (fraction of drug eliminated in urine) [8]: 0.73 ± 0.07 | AUC [9]: 185 ± 13.2 mg·min/mL | fe (fraction of drug eliminated in urine) [9]: 0.74 ± 0.03 | AUC [10]: 309 ± 23.8 mg·min/mL | fe (fraction of drug eliminated in urine) [10]: 0.60 ± 0.05 | AUC [11]: 496 ± 97.6 mg·min/mL | fe (fraction of drug eliminated in urine) [11]: 0.44 ± 0.09 | AUC [12]: 271 ± 47.0 mg·min/mL | fe (fraction of drug eliminated in urine) [12]: 0.62 ± 0.08 | AUC [13]: 290 ± 122.7 mg·min/mL | CL (total clearance) [13]: 6.1 ± 2.4 mL/min/kg | fe (fraction of drug eliminated in urine) [13]: 0.41 ± 0.09 | AUC [14]: 336 ± 78.8 mg·min/mL | fe (fraction of drug eliminated in urine) [14]: 0.78 ± 0.12 | AUC [15]: 343 ± 117.8 mg·min/mL | fe (fraction of drug eliminated in urine) [15]: 0.87 ± 0.07 | clearance (both sexes, plasma, 1500 mg/kg, 1500 mg/kg GHB iv, animal groups other than testosterone-treated OVX rats, read-out: Metabolic clearance, other animal groups): < 2.2 mL/min/kg | CL renal (female, plasma and urine, 1000 mg/kg, 1000 mg/kg GHB iv, OVX testosterone placebo rats): 2.4 ± 0.1 mL/min/kg | clearance (female, plasma and urine, 1000 mg/kg, 1000 mg/kg GHB iv, OVX testosterone placebo rats, read-out: CLm – Metabolic clearance): 3.1 ± 0.3 mL/min/kg | CL renal (female, plasma and urine, 1000 mg/kg, 1000 mg/kg GHB iv, OVX testosterone rats): 2.4 ± 0.7 mL/min/kg | clearance (female, plasma and urine, 1000 mg/kg, 1000 mg/kg GHB iv, OVX testosterone rats, read-out: CLm – Metabolic clearance): 3.6 ± 0.6 mL/min/kg | CL renal (female, plasma and urine, 1000 mg/kg, 1000 mg/kg GHB iv, intact female (estrus) rats): 2.6 ± 0.5 mL/min/kg

Reference: publication PMC10821532, “Sex and Cross-Sex Testosterone Treatment Alters Gamma-Hydroxybutyrate Acid Toxicokinetics and Toxicodynamics in Rats” (Pharmaceutics, 2024)
